Assay [1] has as its target T1, purified wild type MGL (wt-MGLL 6H-11-313) (Homo sapiens, UniProt Q99685).
T1 sequence (Q99685 1-303): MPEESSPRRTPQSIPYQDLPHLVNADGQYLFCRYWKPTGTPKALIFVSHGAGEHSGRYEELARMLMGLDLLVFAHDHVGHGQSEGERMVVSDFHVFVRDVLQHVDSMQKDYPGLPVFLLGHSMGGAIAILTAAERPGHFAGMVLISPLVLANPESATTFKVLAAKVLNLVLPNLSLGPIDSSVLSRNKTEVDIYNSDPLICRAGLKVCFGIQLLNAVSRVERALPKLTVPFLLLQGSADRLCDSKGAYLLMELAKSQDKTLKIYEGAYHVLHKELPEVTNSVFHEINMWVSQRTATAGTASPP

In the next assay the target is T2, mutant MGL (Homo sapiens, UniProt Q99685, L169S/L176S).
T2 sequence (Q99685 1-303 L169S/L176S): T1 sequence (Q99685 1-303) with L169S, L176S
The assay is described as follows: MGL ThermoFluor assay - mutant. It counts as binding.

Where [2] appears, read: compound concentration measured by qNMR, read-out: MGL mutant ThermoFluor qKd (using qNMR conc.).
Where [3] appears, read: ThermoFluor concentration-response, read-out: MGL mutant ThermoFluor Kd.
The mark [4] stands for this setting: ThermoFluor, compound concentration measured by qNMR, read-out: MGL mutant ThermoFluor qKd (μM) (using qNMR conc.).
[5] abbreviates: ThermoFluor, compound concentration measured by qNMR, read-out: MGL mutant ThermoFluor qKd (using qNMR conc.).
Setting [6] is: ThermoFluor thermal stability binding assay, read-out: MGL mutant ThermoFluor Kd.

Positions count from the first letter of the chain named. Read-outs that look alike come from different tables or passages of the source.

Take `O=C(c1ccc(Oc2ncc(C(F)(F)F)cc2Cl)cc1)N1CC(N2CCN(C(=O)C(F)(F)F)CC2)C1` [Cpd 802]: the IC50 in assay [1] came out at 1720 nM. At mutant MGL (setting [2]), the Kd turned out to be 1.67 µM.

`O=C(c1ccc(CNc2cccc(Cl)c2)cc1)N1CC(N2CCN(C(=O)C(F)(F)F)CC2)C1` [Cpd 964] displayed an IC50 in assay [1] of 1700 nM. At mutant MGL (setting [2]), the Kd was 3.2 µM.

Regarding `O=C(c1cscn1)N1CCN(C2CN(C(=O)c3cccc(-c4ccccc4)c3F)C2)CC1` [Cpd 1240], half-maximal inhibition in assay [1] (IC50) was put at 459 nM. Further, the Kd on mutant MGL (setting [3]) worked out at 2.49 µM.

Compound `Cc1noc(C)c1-c1ccc2cc(C(=O)N3CC(N4CCN(C(=O)c5nccs5)CC4)C3)[nH]c2c1` [Cpd 1211] displayed a concentration for half-maximal inhibition (IC50) in assay [1] of 200 nM. Also, the Kd on mutant MGL (setting [4]) was 0.106 µM.

Consider `Cc1nc2cc(C(=O)N3CC(N4CCN(C(=O)c5nccs5)CC4)C3)ccc2s1` [Cpd 783], for which the IC50 in assay [1] stood at 1090 nM. Moreover, at mutant MGL (setting [5]), the Kd came out at 0.732 µM.

Take `O=C(c1ccccc1)N1CCN(C2CN(C(=O)c3ccc(Oc4ccc(Cl)cn4)cc3)C2)CC1` [Cpd 520]: inhibition in assay [1] was half-maximal at 2030 nM (IC50). Besides, the Kd at mutant MGL (setting [3]) worked out at 2 µM.

For the compound `O=C(c1ccc2nc(C(F)(F)F)cc(Cl)c2c1)N1CCN(C2CN(C(=O)c3nccs3)C2)CC1` [Cpd 842], the IC50 in assay [1] is 5530 nM. Besides, the Kd on mutant MGL (setting [3]) is 0.986 µM.

In turn, `O=C(c1ccc2nc(C(F)(F)F)sc2c1)N1CC(N2CCN(C(=O)c3nccs3)CC2)C1` [Cpd 718] gave a 50% inhibitory concentration (IC50) in assay [1] of 148 nM. Further, on mutant MGL (setting [6]), the Kd amounted to 0.072 µM.

Consider `O=C(c1sc2cc(C(F)(F)F)ccc2c1Cl)N1CC(N2CCN(C(=O)c3cscn3)C(C(F)(F)F)C2)C1` (centres unmarked) [Cpd 833], for which the IC50 in assay [1] came to 4560 nM. Also, the Kd on mutant MGL (setting [4]) was 3.33 µM.

Regarding `O=C(c1ccc2c(c1)[nH]c(=O)n2-c1ccc(F)c(F)c1)N1CC(N2CCN(C(=O)c3nccs3)CC2)C1` [Cpd 935], inhibition in assay [1] was half-maximal at 100 nM (IC50). Besides, the Kd on mutant MGL (setting [3]) was determined as 0.034 µM.

In assay [1], `NC(=O)c1cccc(-n2ccc3cc(C(=O)N4CC(N5CCN(C(=O)c6ccccc6)CC5)C4)ccc32)c1` [Cpd 594, 3-[5-({3-[4-(Phenylcarbonyl)piperazin-1-yl]azetidin-1-yl}carbonyl)-1H-indol-1-yl]benzamide] displayed an IC50 of 449 nM. For the same compound, at mutant MGL (setting [4]), the Kd was determined as 0.743 µM.

With `O=C(c1ccc2c(ccn2-c2cccc(C(F)(F)F)c2)c1)N1CC(N2CCN(C(=O)c3nccs3)CC2)C1` [Cpd 1356, 5-({3-[4-(1,3-Thiazol-2-ylcarbonyl)piperazin-1-yl]azetidin-1-yl}carbonyl)-1-[3-(trifluoromethyl)phenyl]-1H-indole], the IC50 in assay [1] was less than 5 nM. In addition, the Kd at mutant MGL (setting [3]) is 0.002 µM.

In assay [1], `O=C(c1ccc2nn(Cc3cccc(C(F)(F)F)c3)cc2c1)N1CC(N2CCN(C(=O)c3nccs3)CC2)C1` [Cpd 1039, 5-({3-[4-(1,3-Thiazol-2-ylcarbonyl)piperazin-1-yl]azetidin-1-yl}carbonyl)-2-[3-(trifluoromethyl)benzyl]-2H-indazole] had an IC50 of 5 nM. Also, on mutant MGL (setting [2]), the Kd stood at 0.007 µM.

`CC(C)(C)c1cc(C(=O)N2CC(N3CCN(C(=O)c4nccs4)CC3)C2)cc(C(C)(C)C)c1` [Cpd 776] registered an IC50 in assay [1] of 902 nM. The Kd at mutant MGL (setting [3]) is 0.257 µM.

For the compound `O=C(c1ccc2c(ccn2CC(F)F)c1)N1CC(N2CCN(C(=O)c3nccs3)CC2)C1` [Cpd 711, 1-(2,2-Difluoroethyl)-5-({3-[4-(1,3-thiazol-2-ylcarbonyl)piperazin-1-yl]azetidin-1-yl}carbonyl)-1H-indole], the IC50 in assay [1] stood at 127 nM. On mutant MGL (setting [2]), the Kd was found to be 0.05 µM.

Regarding `Cn1c2ccccc2c2cc(C(=O)N3CC(N4CCN(C(=O)c5nccs5)CC4)C3)ccc21` [Cpd 750], the half-maximal inhibitory concentration (IC50) in assay [1] was 395 nM. For the same compound, the Kd on mutant MGL (setting [3]) turned out to be 0.025 µM.

As for `O=C(c1ccccc1)N1CCN(C2CN(C(=O)c3ccc(Oc4cccc(Cl)c4)nc3)C2)CC1` [Cpd 519, 1-(1-{[6-(3-Chlorophenoxy)pyridin-3-yl]carbonyl}azetidin-3-yl)-4-(phenylcarbonyl)piperazine], in assay [1], the IC50 amounted to 1620 nM. Moreover, at mutant MGL (setting [3]), the Kd was 0.962 µM.

In the case of `O=C(c1ccc(-c2nc(-c3cccc(C(F)(F)F)c3)cs2)cc1)N1CC(N2CCN(C(=O)c3nccs3)CC2)C1` [Cpd 1332], the IC50 in assay [1] is less than 5 nM. In addition, the Kd at mutant MGL (setting [5]) is 0.008 µM.

In assay [1], `Cc1cc(C(=O)N2CC(N3CCN(C(=O)c4nccs4)CC3)C2)sc1Br` [Cpd 723] came in with an IC50 of 181 nM. The Kd at mutant MGL (setting [4]) stood at 0.292 µM.

Compound `O=C(c1ccccc1)N1CCN(C2CN(C(=O)c3sc4cc(C(F)(F)F)ccc4c3-c3ccccc3)C2)CC1` [Cpd 591] had an IC50 in assay [1] of 212 nM. Besides, the Kd at mutant MGL (setting [6]) is 0.007 µM.

Turning to `O=C(c1ccc2nc(-c3ccccn3)sc2c1)N1CC(N2CCN(C(=O)c3nccs3)CC2)C1` [Cpd 1165], the IC50 in assay [1] amounted to 51 nM. In addition, the Kd at mutant MGL (setting [4]) was determined as 0.09 µM.

Turning to `O=C(c1nccs1)N1CCN(C2CN(C(=O)c3ccccc3Nc3ccccc3)C2)CC1` [Cpd 781], in assay [1], the IC50 stood at 1040 nM.

For the compound `Cn1c2ccccc2c2cc(C(=O)N3CC(N4CCN(C(=O)c5cscn5)CC4)C3)ccc21` [Cpd 767], the IC50 in assay [1] came out at 691 nM.

Turning to `Cn1cc(Cc2cccc(F)c2)c2ccc(C(=O)N3CC(N4CCN(C(=O)c5nccs5)CC4)C3)cc21` [Cpd 1033, 3-(3-Fluorobenzyl)-1-methyl-6-({3-[4-(1,3-thiazol-2-ylcarbonyl)piperazin-1-yl]azetidin-1-yl}carbonyl)-1H-indole], in assay [1], the IC50 was less than 5 nM.

As to `Cc1nc2cc(C(=O)N3CC(N4CCN(C(=O)c5ccccc5)CC4)C3)ccc2n1-c1ccccc1` [Cpd 635], in assay [1], the IC50 came out at 838 nM.

In the case of `O=C(c1ccc2[nH]c(Cc3ccccc3)nc2c1)N1CC(N2CCN(C(=O)c3nccs3)CC2)C1` [Cpd 1004], in assay [1], half-maximal inhibition (IC50) was put at 167 nM.

Compound `O=C(c1ccccc1)N1CCN(C2CN(C(=O)c3cc4cc(C(F)(F)F)ccc4s3)C2)CC1` [Cpd 124] had an IC50 in assay [1] of 321 nM.

For `Cn1cc(-c2ccccc2)c2ccc(C(=O)N3CC(N4CCN(C(=O)c5ccccc5)CC4)C3)cc21` [Cpd 585], in assay [1], the IC50 was found to be 107 nM.

Compound `COc1cccc2c(C)c(C(=O)N3CCN(C4CN(C(=O)c5nccs5)C4)CC3)[nH]c12` [Cpd 846] gave an IC50 in assay [1] of 6450 nM.

`O=C(c1cscn1)N1CCN(C2CN(C(=O)c3nc4cc(Cl)ccc4s3)C2)CC1` [Cpd 855] gave an IC50 in assay [1] of 8440 nM.

In assay [1], `O=C(c1ccccc1)N1CCN(C2CN(C(=O)c3ccc4c(-c5ccccc5)ncnc4c3)C2)CC1` [Cpd 604] had an IC50 of 1840 nM.

`Cc1cccc(Nc2ccccc2C(=O)N2CC(N3CCN(C(=O)c4nccs4)CC3)C2)c1C` [Cpd 744]: 335 nM corresponded to half-maximal inhibition in assay [1] (IC50).

Take `O=C(c1ccc(CS(=O)(=O)c2cccc(C(F)(F)F)c2)cc1)N1CC(N2CCN(C(=O)C(F)(F)F)CC2)C1` [Cpd 1498]: the IC50 in assay [1] was more than 16700 nM.

Consider `Cc1nc2cc(C(=O)N3CC(N4CCN(C(=O)c5cscn5)CC4)C3)ccc2n1C1CCC(F)(F)CC1` [Cpd 1506], for which the half-inhibitory concentration (IC50) in assay [1] is more than 16700 nM.

For the compound `Cc1ccc(-n2nc(C)c(C(=O)N3CC(N4CCN(C(=O)c5nccs5)CC4)C3)n2)cc1` [Cpd 1214], the IC50 in assay [1] is 209 nM.

In assay [1], `Cc1c(-c2ccccc2)oc2c(C(=O)N3CCN(C4CN(C(=O)c5cscn5)C4)CC3c3ccccc3)cccc2c1=O` (centres unmarked) [Cpd 1436] came in with a half-inhibitory concentration (IC50) of more than 16700 nM.

In turn, `O=C(c1ccc2[nH]c(CCc3ccccc3)nc2c1)N1CC(N2CCN(C(=O)c3nccs3)CC2)C1` [Cpd 1000] gave an IC50 in assay [1] of 111 nM.

In assay [1], `O=C(c1ccc2nc(Cc3ccccc3)[nH]c2c1)N1CCN(C2CN(C(=O)c3nccs3)C2)CC1` [Cpd 1001] yielded an IC50 of 1400 nM.

(Values after patent publication US8362000B2, “Azetidinyl diamides as monoacylglycerol lipase inhibitors” (Janssen Pharmaceutica NV, priority 2009, dated 2013).)
